{
  "source": "ChEMBL document CHEMBL1131594",
  "about": "“Stereoisomers of cyclic urea HIV-1 protease inhibitors: synthesis and binding affinities” (J Med Chem, 1998)",
  "data": [
    {"target": "Human immunodeficiency virus type 1 protease (Human immunodeficiency virus 1, UniProt Q72874)", "assay": "Compound was tested for binding affinity against HIV-1 protease.", "units": {"Ki": "nM"}, "values": [
      {"smiles": "O=C1N(Cc2ccccc2)[C@@H](Cc2ccccc2)[C@H](O)[C@@H](O)[C@H](Cc2ccccc2)N1Cc1ccccc1", "Ki": 560},
      {"smiles": "O=C1N(Cc2ccccc2)[C@H](Cc2ccccc2)[C@H](O)[C@@H](O)[C@@H](Cc2ccccc2)N1Cc1ccccc1", "Ki": 3.6},
      {"smiles": "O=C1N(Cc2ccccc2)[C@H](Cc2ccccc2)[C@@H](O)[C@H](O)[C@@H](Cc2ccccc2)N1Cc1ccccc1", "Ki": 1350},
      {"smiles": "O=C1N(Cc2ccccc2)[C@@H](Cc2ccccc2)[C@H](O)[C@H](O)[C@H](Cc2ccccc2)N1Cc1ccccc1", "Ki": 1710},
      {"smiles": "O=C1N(Cc2ccccc2)[C@H](Cc2ccccc2)[C@H](O)[C@@H](O)[C@H](Cc2ccccc2)N1Cc1ccccc1", "Ki": 64},
      {"smiles": "O=C1N(Cc2ccccc2)[C@H](Cc2ccccc2)[C@H](O)[C@H](O)[C@H](Cc2ccccc2)N1Cc1ccccc1", "Ki": 250},
      {"smiles": "O=C1N(Cc2ccccc2)[C@H](Cc2ccccc2)[C@@H](O)[C@H](O)[C@H](Cc2ccccc2)N1Cc1ccccc1", "Ki": 6700},
      {"smiles": "O=C1N(Cc2ccccc2)[C@@H](Cc2ccccc2)[C@@H](O)[C@H](O)[C@H](Cc2ccccc2)N1Cc1ccccc1", "Ki": 3810}
    ]}
  ]
}
